26 compounds from patent publication US12441704B2, “Compounds active towards nuclear receptors” (NUEVOLUTION A/S, priority 2019, dated 2025) can be followed below.

Some results are limits rather than exact numbers.

For one assay, the target named is T1, RORγ ligand-binding domain fused to Gal4 (Homo sapiens, UniProt P51449).
T1 construct: Gal4 (galactose-responsive transcription factor); expressed in transfected cells; host or cells: HEK293
T1 sequence (P51449 269-508 limits assumed): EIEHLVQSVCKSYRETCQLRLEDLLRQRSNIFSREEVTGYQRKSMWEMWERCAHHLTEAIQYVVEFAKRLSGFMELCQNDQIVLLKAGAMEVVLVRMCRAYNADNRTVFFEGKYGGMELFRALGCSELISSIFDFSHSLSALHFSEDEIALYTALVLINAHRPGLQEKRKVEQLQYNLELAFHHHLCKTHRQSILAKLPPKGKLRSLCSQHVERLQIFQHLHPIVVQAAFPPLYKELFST
The assay is described as follows: RORγ Reporter Assay (Gal4). Type of assay: cell-based. Conditions: HEK293 cells co-transfected with RORγ LBD-Gal4 and luciferase reporter; 24 h incubation; absolute EC50; read-out: EC50. The protocol:
The HEK293 cell line is co-transfected transiently with two plasmids, one with the RORγ ligand-binding domain fused to galactose-responsive transcription factor (Gal4), and the other with the luciferase reporter gene and Gal binding sites (UAS). This construction allows to determine the RORγ activity in a cellular system through the measurement of luminescence.
A suspension of RORγ reporter cells was dispensed into plates and cultured 2 h at 37° C. and 5% CO2. Media formulation consisted in DMEM/F-12 medium (Gibco) supplemented with 10% heat inactivated FBS (Sigma-Aldrich), non-essential aminoacids (Sigma-Aldrich), 2 mM Glutamax (Gibco) and 100 U/mL penicillin (Sigma-Aldrich). Dose-response curves with compounds were prepared in 100% DMSO and further diluted 100-fold in culture medium. Compound solutions were added to the plate containing cells (final DMSO concentration of 0.1%) and incubated for 24 h at 37° C. and 5% CO2. Luciferase detection reagent was added to each well, and relative light units (RLUs) were quantified from each assay well using a plate reading luminometer.
Values of average RLU±S.D. were computed for all treatment sets, followed by the calculations of percent-reduction of RORγ activity in response to respective test compound. The following formula was used: activity=100*[1−[x test compound/average vehicle] where the theoretical minimum reduction (0% reduction).
Take `CC(c1ccc(C(F)(F)F)cc1)N(c1ncnc(NCC2CCN(CC(N)=O)CC2)c1F)C1CC1` (stereo not shown) [Example A7-34, 2-(4-(((6-(cyclopropyl(1-(4-(trifluoromethyl)phenyl)ethyl)amino)-5-fluoropyrimidin-4-yl)amino)methyl)piperidin-1-yl)acetamide]: the EC50 stood at 90 nM. For the compound `NC(=O)CN1CC[C@H](CNc2ncnc(N(Cc3cnc(C(F)(F)F)nc3)C3CC3)c2F)[C@@H](O)C1` (single isomer, unassigned) [Example A7-17-1], the EC50 turned out to be 40 nM. With `CCN(Cc1ccc(C(F)(F)F)cn1)c1ncnc(NC[C@@H]2CCN(CC(N)=O)C[C@H]2O)c1F` (racemic) [Example A7-27, rac-2-((3R,4R)-4-(((6-(ethyl((5-(trifluoromethyl)pyridin-2-yl)methyl)amino)-5-fluoropyrimidin-4-yl)amino)methyl)-3-hydroxypiperidin-1-yl)acetamide], the concentration giving a half-maximal response (EC50) came out at 540 nM. Regarding `CC(C)N(Cc1ccc(C(F)(F)F)cc1)c1ncnc(NC[C@H]2CCN(CC(N)=O)C[C@@H]2O)c1F` (racemic) [Example A7-19, rac-2-((3R,4R)-4-(((5-fluoro-6-(isopropyl(4-(trifluoromethyl)benzyl)amino)pyrimidin-4-yl)amino)methyl)-3-hydroxypiperidin-1-yl)acetamide], the EC50 is 42 nM. Take `CCN(Cc1ccc(-c2cnn(CCO)c2)cc1)c1ncnc(NC[C@@H]2CCN(CC(N)=O)C[C@H]2O)c1F` (racemic) [Example A7-73, rac-2-((3R,4R)-4-(((6-(ethyl(4-(1-(2-hydroxyethyl)-1H-pyrazol-4-yl)benzyl)amino)-5-fluoropyrimidin-4-yl)amino)methyl)-3-hydroxypiperidin-1-yl)acetamide]: the 50% effective concentration (EC50) came out at 99 nM. Turning to `NC(=O)CN1CC[C@H](CNc2ncnc(N(Cc3ccc(C(F)(F)F)cn3)C3CC3)c2F)[C@@H](F)C1` (relative stereo) [Example A7-04-2, rel-2-((3R,4R)-4-(((6-(cyclopropyl((5-(trifluoromethyl)pyridin-2-yl)methyl)amino)-5-fluoropyrimidin-4-yl)amino)methyl)-3-fluoropiperidin-1-yl)acetamide], the EC50 came to 89 nM.

Consider `NC(=O)CN1CC[C@@](O)(CNc2ncnc(N(Cc3ccc(C(O)(C(F)(F)F)C(F)(F)F)cc3)C3CC3)c2F)[C@H](O)C1` (relative stereo) [Example D5-06, rel-2-((3R,4R)-4-(((6-(cyclopropyl(4-(1,1,1,3,3,3-hexafluoro-2-hydroxypropan-2-yl)benzyl)amino)-5-fluoropyrimidin-4-yl)amino)methyl)-3,4-dihydroxypiperidin-1-yl)acetamide], for which the EC50 worked out at 16 nM.

As to `NC(=O)CN1CC[C@@H](CNc2ncnc(N(Cc3ccc(C(F)F)nc3)C3CC3)c2F)[C@H](O)C1` (single isomer, unassigned) [Example A7-25-1], the EC50 stood at 630 nM. The same measure, in the same setting: under `NC(=O)CN1CC[C@@H](CNc2ncnc(N(Cc3ccc(OC(F)F)cc3F)C3CCC3)c2F)[C@H](O)C1` (single isomer, unassigned) [Example A7-15-1] stands 51 nM; under `CCN(Cc1ccc(C(F)(F)F)cc1F)c1ncnc(NC[C@@H]2CCN(CC(N)=O)C[C@H]2O)c1F` (stereo in doubt) [Example A7-26, rac-2-((3R,4R)-4-(((6-(ethyl(2-fluoro-4-(trifluoromethyl)benzyl)amino)-5-fluoropyrimidin-4-yl)amino)methyl)-3-hydroxypiperidin-1-yl)acetamide], 17 nM; under `NC(=O)CN1CCC(CNc2ncnc(N(Cc3ccc(C(F)(F)F)cc3)C3CC3)c2F)CC1` [Example A7-39, 2-(4-(((6-(cyclopropyl(4-(trifluoromethyl)benzyl)amino)-5-fluoropyrimidin-4-yl)amino)methyl)piperidin-1-yl)acetamide], 37 nM.

On to `NC(=O)CN1CC[C@@H](CNc2ncnc(N(Cc3ccc(C(F)(F)F)nc3)C3CCC3)c2F)[C@H](O)C1` (racemic) [Example A7-23, rac-2-((3R,4R)-4-(((6-(cyclobutyl((6-(trifluoromethyl)pyridin-3-yl)methyl)amino)-5-fluoropyrimidin-4-yl)amino)methyl)-3-hydroxypiperidin-1-yl)acetamide], for which the EC50 amounted to 81 nM.

Regarding `NC(=O)CN1CC[C@H](CNc2ncnc(N(Cc3ccc(C(F)(F)F)cc3F)C3CC3)c2F)[C@@H](O)C1` (single isomer, unassigned) [Example A7-22-1], the EC50 is 4.9 nM.

`NC(=O)CN1CC[C@H](CNc2ncnc(N(Cc3cnc(C(F)(F)F)nc3)C3CCC3)c2F)[C@@H](O)C1` (single isomer, unassigned) [Example A7-18-2]: the EC50 was found to be 82 nM. Same read-out and setting: as for `NC(=O)CN1CC[C@H](CNc2ncnc(N(Cc3ccc(C(F)(F)F)cc3)C3CCC3)c2F)[C@@H](O)C1` (stereo in doubt) [Example A7-16-2, rel-2-((3R,4R)-4-(((6-(cyclobutyl(4-(trifluoromethyl)benzyl)amino)-5-fluoropyrimidin-4-yl)amino)methyl)-3-hydroxypiperidin-1-yl)acetamide], the figure is 22 nM; as for `NC(=O)CN1CC[C@@](O)(CNc2ncnc(N(Cc3ccc(C(F)(F)F)cc3)C3CC3)c2F)[C@H](O)C1` (single isomer, unassigned) [Example D5-02-1-2], 61 nM.

Turning to `NC(=O)CN1CCC(CNc2ncnc(N(Cc3ccc(C(F)(F)F)cc3)C3CC3)c2F)(c2nc[nH]n2)CC1` [Example A7-80, 2-(4-(((6-(Cyclopropyl(4-(trifluoromethyl)benzyl)amino)-5-fluoropyrimidin-4-yl)amino)methyl)-4-(1H-1,2,4-triazol-3-yl)piperidin-1-yl)acetamide], the EC50 came to 53 nM. Consider `NC(=O)CN1CC[C@@H](CNc2ncnc(N(CCF)Cc3ccc(C(F)(F)F)cc3)c2F)[C@H](O)C1` (racemic) [Example A7-30, rac-2-((3R,4R)-4-(((5-fluoro-6-((2-fluoroethyl)(4-(trifluoromethyl)benzyl)amino)pyrimidin-4-yl)amino)methyl)-3-hydroxypiperidin-1-yl)acetamide], for which the EC50 was over 1000 nM. Take `NC(=O)C(CO)N1CCC(CNc2ncnc(N(Cc3ccc(C(F)(F)F)cc3)C3CC3)c2F)CC1` (stereo not shown) [Example A7-64, 2-(4-(((6-(cyclopropyl(4-(trifluoromethyl)benzyl)amino)-5-fluoropyrimidin-4-yl)amino)methyl)piperidin-1-yl)-3-hydroxypropanamide]: the EC50 was determined as 73 nM. Still for that read-out and setting: as for `NC(=O)CN1CCC(CNc2ncnc(N(Cc3ccc(C(F)(F)F)cc3)C3CC3)c2F)C(C(F)(F)F)C1` (single isomer, unassigned) [Example A7-07-4, 2-(4-(((6-(cyclopropyl(4-(trifluoromethyl)benzyl)amino)-5-fluoropyrimidin-4-yl)amino)methyl)-3-(trifluoromethyl)piperidin-1-yl)acetamide], the figure is 170 nM; as for `Cn1c(=O)oc2cc(CN(c3ncnc(NCC4(F)CCN(CC(N)=O)CC4)c3F)C3CC3)ccc21` [Example A7-13], 230 nM; as for `NC(=O)CN1CC[C@H](CNc2ncnc(N(Cc3ccc(C(F)(F)F)cc3F)C3CC3)c2F)[C@@H](O)C1` (single isomer, unassigned) [Example A7-22-2], 3.4 nM. As for `CC(C)N(Cc1ccc(C(F)(F)F)cc1)c1ncnc(NC[C@H]2CCN(CC(N)=O)C[C@@H]2O)c1F` (relative stereo) [Example A7-19-1, rel-2-((3R,4R)-4-(((5-fluoro-6-(isopropyl(4-(trifluoromethyl)benzyl)amino)pyrimidin-4-yl)amino)methyl)-3-hydroxypiperidin-1-yl)acetamide], the EC50 was determined as 40 nM. Consider `NC(=O)CN1CC[C@@H](CNc2ncnc(N(Cc3ccc(C(F)(F)F)cc3)C3CC3)c2F)[C@@H](O)C1` (racemic) [Example A7-49, rac-2-((3R,4S)-4-(((6-(cyclopropyl(4-(trifluoromethyl)benzyl)amino)-5-fluoropyrimidin-4-yl)amino)methyl)-3-hydroxypiperidin-1-yl)acetamide], for which the EC50 came out at 168 nM.

Still in this assay, the particulars now being: compounds of the present disclosure; source: Table 2 herein; read-out: Gal4 assay EC50.
Turning to `NC(=O)CN1CC[C@H](CNc2ncnc(N(Cc3ccc(C(F)(F)F)cc3)C3CC3)c2F)[C@@H](F)C1` (single isomer, unassigned) [Example A7-05-1], the EC50 is under 100 nM.

The assay is the same for the next values; noted with them: compounds of the present disclosure; value from Table 2 herein; read-out: Gal4 assay EC50.
`CC(c1ccc(C(F)(F)F)cc1)N(c1ncnc(NCC2CCN(CC(N)=O)CC2)c1F)C1CC1` (stereo not shown) [Example A7-34, 2-(4-(((6-(cyclopropyl(1-(4-(trifluoromethyl)phenyl)ethyl)amino)-5-fluoropyrimidin-4-yl)amino)methyl)piperidin-1-yl)acetamide]: the EC50 is under 100 nM.

For `NC(=O)CN1CC[C@H](CNc2ncnc(N(Cc3cnc(C(F)(F)F)nc3)C3CC3)c2F)[C@@H](O)C1` (single isomer, unassigned) [Example A7-17-1], the half-maximal effective concentration (EC50) is under 100 nM. In the case of `CN(Cc1cccc(OC(F)(F)F)c1)c1ncnc(NC[C@@H]2CCN(CC(N)=O)C[C@H]2O)c1F` (racemic) [Example F2-07, rac-2-((3R,4R)-4-(((5-fluoro-6-(methyl(3-(trifluoromethoxy)benzyl)amino)pyrimidin-4-yl)amino)methyl)-3-hydroxypiperidin-1-yl)acetamide], the EC50 was under 100 nM.
